{
  "source": "patent US11911393B2",
  "about": "“Non-catalytic substrate-selective p38alpha-specific MAPK inhibitors with endothelial-stabilizing and anti-inflammatory activity, and methods of use thereof” (University of Maryland, Baltimore, priority 2016, dated 2024)",
  "test_system": "TNFα-induced gene expression in HMVECLs",
  "test": "RNASeq of TNFα-induced gene expression",
  "format": "cell-based, human",
  "settings": "100 μM UM101, 10 μM SB203580",
  "data": [
    {"smiles": "C[S+]([O-])c1ccc(-c2nc(-c3ccncc3)c(-c3ccc(F)cc3)[nH]2)cc1", "note": "(centres unmarked) [SB203580, reference compound]", "values": [
      {"measurement": "bin (gene expression response pattern): MAP2K6", "setting": "HMVECLs, TNFα", "result": 1},
      {"measurement": "bin (gene expression response pattern): MMP9", "setting": "HMVECLs, TNFα", "result": 3},
      {"measurement": "bin (gene expression response pattern): MUC4", "setting": "HMVECLs, TNFα", "result": 3},
      {"measurement": "bin (gene expression response pattern): NEURL3", "setting": "HMVECLs, TNFα", "result": 5},
      {"measurement": "bin (gene expression response pattern): NIPAL4", "setting": "HMVECLs, TNFα", "result": 5},
      {"measurement": "bin (gene expression response pattern): NOG", "setting": "HMVECLs, TNFα", "result": 5},
      {"measurement": "bin (gene expression response pattern): NUAK1", "setting": "HMVECLs, TNFα", "result": 5},
      {"measurement": "bin (gene expression response pattern): NUAK2", "setting": "HMVECLs, TNFα", "result": 5},
      {"measurement": "bin (gene expression response pattern): OR2I1P", "setting": "HMVECLs, TNFα", "result": 3},
      {"measurement": "bin (gene expression response pattern): PALMD", "setting": "HMVECLs, TNFα", "result": 5},
      {"measurement": "bin (gene expression response pattern): PCDH17", "setting": "HMVECLs, TNFα", "result": 5},
      {"measurement": "bin (gene expression response pattern): PCLO", "setting": "HMVECLs, TNFα", "result": 5},
      {"measurement": "bin (gene expression response pattern): PDE7B", "setting": "HMVECLs, TNFα", "result": 5},
      {"measurement": "bin (gene expression response pattern): PDK4", "setting": "HMVECLs, TNFα", "result": 5},
      {"measurement": "bin (gene expression response pattern): PGF", "setting": "HMVECLs, TNFα", "result": 5},
      {"measurement": "bin (gene expression response pattern): PLA1A", "setting": "HMVECLs, TNFα", "result": 3},
      {"measurement": "bin (gene expression response pattern): PRICKLE1", "setting": "HMVECLs, TNFα", "result": 5},
      {"measurement": "bin (gene expression response pattern): PRKCH", "setting": "HMVECLs, TNFα", "result": 5},
      {"measurement": "bin (gene expression response pattern): PRRG4", "setting": "HMVECLs, TNFα", "result": 3},
      {"measurement": "bin (gene expression response pattern): PTGER4P2", "setting": "HMVECLs, TNFα", "result": 5},
      {"measurement": "bin (gene expression response pattern): RASSF9", "setting": "HMVECLs, TNFα", "result": 5},
      {"measurement": "bin (gene expression response pattern): RGCC", "setting": "HMVECLs, TNFα", "result": 5},
      {"measurement": "bin (gene expression response pattern): RIMS1", "setting": "HMVECLs, TNFα", "result": 5},
      {"measurement": "bin (gene expression response pattern): RN7SL471P", "setting": "HMVECLs, TNFα", "result": 5},
      {"measurement": "bin (gene expression response pattern): RNF152", "setting": "HMVECLs, TNFα", "result": 5},
      {"measurement": "bin (gene expression response pattern): RP11-197M22.2", "setting": "HMVECLs, TNFα", "result": 5},
      {"measurement": "bin (gene expression response pattern): RP11-244F12.3", "setting": "HMVECLs, TNFα", "result": 5},
      {"measurement": "bin (gene expression response pattern): RP11-284F21.7", "setting": "HMVECLs, TNFα", "result": 1},
      {"measurement": "bin (gene expression response pattern): RP11-309L24.2", "setting": "HMVECLs, TNFα", "result": 5},
      {"measurement": "bin (gene expression response pattern): RP11-490B18.5", "setting": "HMVECLs, TNFα", "result": 3},
      {"measurement": "bin (gene expression response pattern): RP11-758N13.1", "setting": "HMVECLs, TNFα", "result": 5},
      {"measurement": "bin (gene expression response pattern): RPA4", "setting": "HMVECLs, TNFα", "result": 5},
      {"measurement": "bin (gene expression response pattern): SEMA6D", "setting": "HMVECLs, TNFα", "result": 1},
      {"measurement": "bin (gene expression response pattern): SERTAD4", "setting": "HMVECLs, TNFα", "result": 5},
      {"measurement": "bin (gene expression response pattern): SGK223", "setting": "HMVECLs, TNFα", "result": 5},
      {"measurement": "bin (gene expression response pattern): SH3RF2", "setting": "HMVECLs, TNFα", "result": 5},
      {"measurement": "bin (gene expression response pattern): SH3TC2", "setting": "HMVECLs, TNFα", "result": 5},
      {"measurement": "bin (gene expression response pattern): SLC15A3", "setting": "HMVECLs, TNFα", "result": 3},
      {"measurement": "bin (gene expression response pattern): SLC16A6", "setting": "HMVECLs, TNFα", "result": 5},
      {"measurement": "bin (gene expression response pattern): SLC45A3", "setting": "HMVECLs, TNFα", "result": 5},
      {"measurement": "bin (gene expression response pattern): SLCO4A1", "setting": "HMVECLs, TNFα", "result": 5},
      {"measurement": "bin (gene expression response pattern): SMAD6", "setting": "HMVECLs, TNFα", "result": 5},
      {"measurement": "bin (gene expression response pattern): SNORD12B", "setting": "HMVECLs, TNFα", "result": 3},
      {"measurement": "bin (gene expression response pattern): SOX18", "setting": "HMVECLs, TNFα", "result": 5},
      {"measurement": "bin (gene expression response pattern): SSTR1", "setting": "HMVECLs, TNFα", "result": 5},
      {"measurement": "bin (gene expression response pattern): TCHH", "setting": "HMVECLs, TNFα", "result": 3},
      {"measurement": "bin (gene expression response pattern): TGFA", "setting": "HMVECLs, TNFα", "result": 5},
      {"measurement": "bin (gene expression response pattern): TLR7", "setting": "HMVECLs, TNFα", "result": 2},
      {"measurement": "bin (gene expression response pattern): TRIL", "setting": "HMVECLs, TNFα", "result": 1},
      {"measurement": "bin (gene expression response pattern): TRPC6", "setting": "HMVECLs, TNFα", "result": 5},
      {"measurement": "bin (gene expression response pattern): TSLP", "setting": "HMVECLs, TNFα", "result": 3},
      {"measurement": "bin (gene expression response pattern): UNC5B-AS1", "setting": "HMVECLs, TNFα", "result": 5},
      {"measurement": "bin (gene expression response pattern): VAV3", "setting": "HMVECLs, TNFα", "result": 5},
      {"measurement": "bin (gene expression response pattern): VDR", "setting": "HMVECLs, TNFα", "result": 3},
      {"measurement": "bin (gene expression response pattern): Y_RNA", "setting": "HMVECLs, TNFα", "result": 3},
      {"measurement": "bin (gene expression response pattern): ZNF365", "setting": "HMVECLs, TNFα", "result": 5},
      {"measurement": "bin (gene expression response pattern): ZNF467", "setting": "HMVECLs, TNFα", "result": 5},
      {"measurement": "bin (gene expression response pattern): ZNF521", "setting": "HMVECLs, TNFα", "result": 5},
      {"measurement": "bin (gene expression response pattern)", "setting": "HPCA (ENSG00000121905)", "result": 8},
      {"measurement": "bin (gene expression response pattern)", "setting": "IFIH1 (ENSG00000115267)", "result": 7},
      {"measurement": "bin (gene expression response pattern)", "setting": "IL1A (ENSG00000115008)", "result": 8},
      {"measurement": "bin (gene expression response pattern)", "setting": "IL3RA (ENSG00000185291)", "result": 7},
      {"measurement": "bin (gene expression response pattern)", "setting": "IL12RB1 (ENSG00000096996)", "result": 8},
      {"measurement": "bin (gene expression response pattern)", "setting": "IRF8 (ENSG00000140968)", "result": 7},
      {"measurement": "bin (gene expression response pattern)", "setting": "KYNU (ENSG00000115919)", "result": 7},
      {"measurement": "bin (gene expression response pattern)", "setting": "LINC00092 (ENSG00000225194)", "result": 7},
      {"measurement": "bin (gene expression response pattern)", "setting": "LST1 (ENSG00000204482)", "result": 7},
      {"measurement": "bin (gene expression response pattern)", "setting": "LYPD6 (ENSG00000187123)", "result": 7},
      {"measurement": "bin (gene expression response pattern)", "setting": "MIR126 (ENSG00000199161)", "result": 7},
      {"measurement": "bin (gene expression response pattern)", "setting": "MOB3C (ENSG00000142961)", "result": 7},
      {"measurement": "bin (gene expression response pattern)", "setting": "MRGPRX4 (ENSG00000179817)", "result": 7},
      {"measurement": "bin (gene expression response pattern)", "setting": "NKD2 (ENSG00000145506)", "result": 8},
      {"measurement": "bin (gene expression response pattern)", "setting": "NKX3-1 (ENSG00000167034)", "result": 8},
      {"measurement": "bin (gene expression response pattern)", "setting": "OLR1 (ENSG00000173391)", "result": 8},
      {"measurement": "bin (gene expression response pattern)", "setting": "P2RX2 (ENSG00000187848)", "result": 8},
      {"measurement": "bin (gene expression response pattern)", "setting": "PARP14 (ENSG00000173193)", "result": 7},
      {"measurement": "bin (gene expression response pattern)", "setting": "PEXHG (ENSG00000104883)", "result": 7},
      {"measurement": "bin (gene expression response pattern)", "setting": "PRRT2 (ENSG00000167371)", "result": 7},
      {"measurement": "bin (gene expression response pattern)", "setting": "RCAN1 (ENSG00000159200)", "result": 7},
      {"measurement": "bin (gene expression response pattern)", "setting": "RND1 (ENSG00000172602)", "result": 8},
      {"measurement": "bin (gene expression response pattern)", "setting": "RP3-416H24.1 (ENSG00000257671)", "result": 8},
      {"measurement": "bin (gene expression response pattern)", "setting": "RP4-607I7.1 (ENSG00000255521)", "result": 7},
      {"measurement": "bin (gene expression response pattern)", "setting": "RP4-681N20.5 (ENSG00000275582)", "result": 8},
      {"measurement": "bin (gene expression response pattern)", "setting": "RP4-734G22.3 (ENSG00000272078)", "result": 7},
      {"measurement": "bin (gene expression response pattern)", "setting": "RP11-79H23.3 (ENSG00000261618)", "result": 7},
      {"measurement": "bin (gene expression response pattern)", "setting": "RP11-158I3.3 (ENSG00000269826)", "result": 8},
      {"measurement": "bin (gene expression response pattern)", "setting": "RP11-283G6.5 (ENSG00000255750)", "result": 7},
      {"measurement": "bin (gene expression response pattern)", "setting": "RP11-342K2.1 (ENSG00000279133)", "result": 8},
      {"measurement": "bin (gene expression response pattern)", "setting": "RP11-638I2.9 (ENSG00000258521)", "result": 8},
      {"measurement": "bin (gene expression response pattern)", "setting": "RP11-875011.2 (ENSG00000246130)", "result": 7},
      {"measurement": "bin (gene expression response pattern)", "setting": "SCUBE2 (ENSG00000175356)", "result": 7},
      {"measurement": "bin (gene expression response pattern)", "setting": "SFMBT2 (ENSG00000198879)", "result": 7},
      {"measurement": "bin (gene expression response pattern)", "setting": "SLC19A3 (ENSG00000135917)", "result": 7},
      {"measurement": "bin (gene expression response pattern)", "setting": "SLC26A9 (ENSG00000174502)", "result": 8},
      {"measurement": "bin (gene expression response pattern)", "setting": "SLC52A3 (ENSG00000101276)", "result": 7},
      {"measurement": "bin (gene expression response pattern)", "setting": "TMEM52B (ENSG00000165685)", "result": 8},
      {"measurement": "bin (gene expression response pattern)", "setting": "TNF (ENSG00000232810)", "result": 8},
      {"measurement": "bin (gene expression response pattern)", "setting": "TNIP3 (ENSG00000050730)", "result": 7},
      {"measurement": "bin (gene expression response pattern)", "setting": "TOX (ENSG00000198846)", "result": 8},
      {"measurement": "bin (gene expression response pattern)", "setting": "TP63 (ENSG00000073282)", "result": 8},
      {"measurement": "bin (gene expression response pattern)", "setting": "VCAM1 (ENSG00000162692)", "result": 7}
    ]}
  ]
}
